# From patent US20170223976A1, “MODIFIED MILK POWDER CONTAINING 1,5-ANHYDRO-D-GLUCITOL” (NIHON STARCH CO., LTD., priority 2015, published 2017)
# What was measured:
# mesenchymal stem cells = assay: GeneChip analysis using mesenchymal stem cells; format: cell-based, human; settings: 1,5-AG reduced from 40 μg/mL to 1 μg/mL or less, 10th day
# Protocol: GeneChip analysis using mesenchymal stem cells was carried out to clarify the function of 1,5-AG in a human. After 1,5-AG was added to a medium to ensure that the final concentration of 1,5-AG became not more than 1 μg/mL or 40 μg/mL and the mesenchymal stem cells were cultured for 10 days, total RNA was collected to carry out GeneChip analysis so as to analyze genes which were expressed and fluctuated according to the difference in the amount of 1,5-AG cyclopaedically. A similar test was carried out 3 times to obtain results which were then summarized and analyzed. The test was carried out by the following method.
# Crystalline 1,5-AG was dissolved in pure water to a concentration of 40 mg/mL and filtered with a centrifugal ultrafiltration membrane having a molecular weight cut-off of 3,000 to remove trace macromolecules.
# Mesenchymal cells derived from bone marrow (Riken Cell Bank, Resource No. MSC-R46)
# DMEM prepared by adding 10% fetal bovine serum (FBS) and a 3 ng/mL fibroblast growth factor (FGF-2) (to be referred to as “growth medium” hereinafter) was used for the preculture of the mesenchymal stem cells. 10% FBS-added DMEM (to be referred to as “test medium” hereinafter) was used in this test. FGF-2 has the function of keeping the undifferentiated state of the mesenchymal stem cells, and the undifferentiated state of the cells was maintained by using the FGF-2-added medium during preculture. In this test, to analyze the differentiation-inducing effect of the sample, a medium containing no FGF-2 was used.
# The human mesenchymal cells were initiated in a T-75 flask by using the growth medium and cultured in a CO2 incubator (5% CO2, 37° C., moistening). Medium exchange was carried out every 2 days, and the cells were separated by using 0.25% Trypsin/EDTA when 80% confluence was reached and collected to be used in this test.
# The sample was added to a test medium to ensure that the final concentration of 1,5-AG became 40 μg/mL. […]
# [1] = cited from earlier work
# [2] = test system: type 2 diabetes model mice; settings: mouse, in vivo; cited from earlier work
# PC12 cells = assay: Determination of neurite outgrowth rate in PC12 cells (image count); format: cell-based; settings: for cells showing a neurite outgrowth rate of 1 time or more / cells showing a neurite outgrowth rate of 2 times or more: 96 hours
# Protocol: PSG-1 belongs to an immunoglobulin super family which includes some having the function of promoting neurogenesis. Then, the influence of 1,5-AG upon neuritogenesis was investigated. This was evaluated in a test system using PC12 cells which are generally used for the evaluation of neuritogenesis.
# PC12 cells (Lot No. 48, Lot No. 51) (RIKEN cell bank, material 1)
# DMEM medium prepared by adding 0.1% of FBS, 0.1% of HS, 1 ng/mL NGF and 1% of penicillin-streptomycin
# PC12 cells were initiated in a T-75 flask by using a growth medium to be cultured in a CO2 incubator (5% CO2, 37° C., moistening). Medium exchange was carried out every 2 days, the cells were collected when 80% confluence was reached, and cells having a passage number of 2 were used in this test. Stated more specifically, after the cells were washed with D-PBS (−), the cells were separated by using 0.05% trypsin, and a growth medium was added to neutralize trypsin. Then, the supernatant was removed by centrifugation (180 g, 5 minutes), a growth medium was added to stir the cells, the number of the cells was counted by using a corpuscle calculating board, and a growth medium was used to achieve a target concentration (2.0×10^3 cells/100 μL).
# A test was carried out at five concentrations (1.6, 8, 40, 200 and 1,000 μg/mL) of 1,5-AG. Stated more specifically, a 1,5-AG aqueous solution having a concentration of 100 mg/mL was diluted with water to prepare 100 times-concentrated solutions having concentrations of 0.16, 0.8, 4, 20 and 100 mg/mL. These 100 times-concentrated solutions were each added to a test medium in a ratio of 1/100 to achieve final concentrations of 1.6, 8, 40, 200 and 1,000 μg/mL and sterilized with a filter to be used in the test. As a negative control, water was added to a medium in a ratio of 1/100 and sterilized with a filter to be used in the test. As a positive control, a test medium containing a 100 ng/mL nerve growth factor (NGF) was used.
# A growth medium was used to adjust the cells to a concentration of 2.0×10^3 cells/100 μL/well, and the cells were scattered in a collagen-coated 96-well plate to be cultured in a CO2 incubator (5% CO2, 37° C., moistening) for 24 hours. After culture, the medium was replaced by a sample-containing test medium (100 μL), and the cells were cultured in a CO2 incubator for 96 hours. After the end of culture, an image of the cells in each well was taken with a phase difference microscope and used for the measurement of nuetrite outgrowth rate, and nuclei and cytoplasms were fluorescent dyed by using a neurite outgrowth staining kit to measure the number of living cells and the amount of neurite outgrowth. These procedures were carried out five times each.
# Based on the image taken above, the total number of cells, the number of cells showing the same or higher neurite outgrowth than the cell length and the number of cells showing neurites having a length 2 times or more than the cell length were measured from the image of the cells. The percentage (%) of cells showing neurite outgrowth was calculated from the measurement values.
# [3] = excessive amount of 1,5-AG taken as food
compound,measurement,setting,value
"OC[C@H]1OC[C@H](O)[C@@H](O)[C@@H]1O [1,5-AG, 1,5-anhydro-D-glucitol]",expression of CSH-1,mesenchymal stem cells,decreases as well
same,expression of interleukin 6 signal transducer (IL6ST) gene,mesenchymal stem cells,reduced most
same,expression of pregnancy specific beta-1-glycoprotein 1 (PSG-1) gene,mesenchymal stem cells; rank among genes whose expression was reduced,observed after these
same,"temporary rise of the concentration of 1,5-AG in the blood",[1]; [3],about 100 times
same,"time for the 1,5-AG level in the blood to return to the original level",[1]; [3],about 24 hours
same,"time for the 1,5-AG level in the blood to return to the original value","[1]; ingested temporarily, for example 20 g, eliminated through urine",about 24 hours
same,anti-inflammatory effect,[2],anti-inflammatory effect
same,cells showing a neurite outgrowth rate of 1 time or more,"PC12 cells; 40 μg/mL 1,5-AG",15.8%
same,cells showing a neurite outgrowth rate of 2 times or more,"PC12 cells; 40 μg/mL 1,5-AG",10.3%
same,cells showing a neurite outgrowth rate of 1 time or more,"PC12 cells; 200 μg/mL 1,5-AG",18.7%
same,cells showing a neurite outgrowth rate of 2 times or more,"PC12 cells; 200 μg/mL 1,5-AG",10.4%
same,"cells showing a neurite outgrowth rate of 2 times or more, relative to non-added section","PC12 cells; 40 and 200 μg/mL 1,5-AG",about 2 times
